Here are results for 18 molecules from patent US8835429B2, “Pyrimidine compounds, their use as mTOR kinase and Pl3 kinase inhibitors, and their syntheses” (Wyeth LLC, priority 2009, dated 2014).

One test concerns the target PI3K-alpha (Homo sapiens, UniProt P42336). Put plainly: PI3K-alpha fluorescence polarization assay. Type of test: biochemical. As to conditions: 20 μM PIP2, 25 μM ATP; read-out: PI3Kα IC50. As to the method:
The reaction buffer was 20 mM HEPES, pH 7.5, 2 mM MgCl2, 0.05% CHAPS; and 0.01% βME (added fresh). The stop/detection buffer was 100 mM HEPES, pH 7.5, 4 mM EDTA, 0.05% CHAPS; ATP 20 mM in water; PIP2 (diC8, Echelon, Salt Lake City Utah cat #P-4508) 1 mM in water (MW=856.5). The GST-GRP was 1.75 mg/mL or 1.4 mg/mL in 10% glycerol. The red detector (TAMRA) was 2.5 μM. Nunc 384-well black polypropylene fluorescent plates were used for PI3K assays.
The assay is run by placing 5 μL of diluted enzyme per well, then 5 μL of diluted compound (or 9.5 μL enzyme then 0.5 μL compound in DMSO) is added and mixed. Then, 10 μL substrate is added to start the reaction. The samples are incubated 30-60 minutes, then the reaction is stopped by adding 20 μL stop/detector mix. PI3K is diluted with reaction buffer (e.g., 5 μL or 7.5 μL PI3K into 620 μL reaction buffer), and 5 μL of diluted enzyme is used per well. A 5 μL portion of reaction buffer or of drug diluted in buffer (e.g., 4 μL/100 so final DMSO is 1% in reaction) is added to each. Pipetting up and down mixes the samples. Alternatively, the enzyme can be diluted to 1215 μL. In this case 9.8 μL is added per well and 0.2 μL compound is added in DMSO.
To prepare 1 mL of substrate solution, 955 μL reaction buffer, 40 μL PIP2, and 2.5 μL ATP are mixed. 10 μL of substrate is added to each well to start the reaction. […] The stop/detector mix is prepared by mixing 4 μL red detector and 1.6 μL or 2.0 μL GST-GRP with 1 mL stop buffer, which results in 10 nM probe and 70 nM GST-GRP. 20 μL of the stop/detector mix is added to each well to stop the reaction. The plates are read after 30-90 minutes keeping the red probe solutions dark. For the zero time point, stop/detector mix is added to the enzyme just before adding substrate. For an extra control, stop/detector mix is added to buffer (no enzyme) and substrate or to just buffer (no substrate). […] The recommended reaction has 0.06 μL per 20 μL (0.015 μg/20 μL) or 0.01125 μg/15 μL or 0.75 μg/mL.
Plates are read on machines with filters for TAMRA. The units are mP with no enzyme controls reading app 190-220 mP units. Fully active enzyme reduces fluorescence polarization down to 70-100 mP after 30 minutes. An active compound raises the mP values halfway to control or to 120-150 mP units.
For orientation: In fluorescence polarisation assays a small probe gives low polarisation when free and higher when bound to something large.

In another test the test system is LNCap. The experiment in a line: In vitro cell growth assay (MTS), LNCap. The settings on record: human prostate line, three days after drug treatment. Type of test: cell-based. As to the method:
(§1) The cell lines used were human prostate lines LNCap and PC3MM2, human breast lines MDA468 and MCF7, human renal line HTB44 (A498), human colon line HCT116, and human ovarian line OVCAR3. Cells were plated in 96-well culture plates. One day following plating, the inhibitors were added to cells. Three days after drug treatment, viable cell densities were determined by metabolic conversion (by viable cells) of the dye MTS, a well-established cell proliferation assay. The assays were performed using an assay kit purchased from Promega Corp. (Madison, Wis.) following the protocol supplied with the kit. The MTS assay results were read in a 96-well plate reader by measuring absorbance at 490 nm. The effect of each treatment was calculated as percent of control growth relative to the vehicle-treated cells grown in the same culture plate.

The test system of another test is MDA468. The experiment in a line: In vitro cell growth assay (MTS), MDA468. Type of test: cell-based. As to conditions: human breast line MDA468, three days after drug treatment, read-out: MDA IC50. As to the method:
as §1

The target of another test is mTOR (Homo sapiens, UniProt P42345). Put plainly: mTOR enzyme assay (DELFIA, purified FLAG-TOR, His6-S6K substrate). Type of test: biochemical. Also noted: FLAG. As to conditions: 100 μM ATP, 2 hours.
mTOR, sequence (P42345 1360-2549 limits assumed): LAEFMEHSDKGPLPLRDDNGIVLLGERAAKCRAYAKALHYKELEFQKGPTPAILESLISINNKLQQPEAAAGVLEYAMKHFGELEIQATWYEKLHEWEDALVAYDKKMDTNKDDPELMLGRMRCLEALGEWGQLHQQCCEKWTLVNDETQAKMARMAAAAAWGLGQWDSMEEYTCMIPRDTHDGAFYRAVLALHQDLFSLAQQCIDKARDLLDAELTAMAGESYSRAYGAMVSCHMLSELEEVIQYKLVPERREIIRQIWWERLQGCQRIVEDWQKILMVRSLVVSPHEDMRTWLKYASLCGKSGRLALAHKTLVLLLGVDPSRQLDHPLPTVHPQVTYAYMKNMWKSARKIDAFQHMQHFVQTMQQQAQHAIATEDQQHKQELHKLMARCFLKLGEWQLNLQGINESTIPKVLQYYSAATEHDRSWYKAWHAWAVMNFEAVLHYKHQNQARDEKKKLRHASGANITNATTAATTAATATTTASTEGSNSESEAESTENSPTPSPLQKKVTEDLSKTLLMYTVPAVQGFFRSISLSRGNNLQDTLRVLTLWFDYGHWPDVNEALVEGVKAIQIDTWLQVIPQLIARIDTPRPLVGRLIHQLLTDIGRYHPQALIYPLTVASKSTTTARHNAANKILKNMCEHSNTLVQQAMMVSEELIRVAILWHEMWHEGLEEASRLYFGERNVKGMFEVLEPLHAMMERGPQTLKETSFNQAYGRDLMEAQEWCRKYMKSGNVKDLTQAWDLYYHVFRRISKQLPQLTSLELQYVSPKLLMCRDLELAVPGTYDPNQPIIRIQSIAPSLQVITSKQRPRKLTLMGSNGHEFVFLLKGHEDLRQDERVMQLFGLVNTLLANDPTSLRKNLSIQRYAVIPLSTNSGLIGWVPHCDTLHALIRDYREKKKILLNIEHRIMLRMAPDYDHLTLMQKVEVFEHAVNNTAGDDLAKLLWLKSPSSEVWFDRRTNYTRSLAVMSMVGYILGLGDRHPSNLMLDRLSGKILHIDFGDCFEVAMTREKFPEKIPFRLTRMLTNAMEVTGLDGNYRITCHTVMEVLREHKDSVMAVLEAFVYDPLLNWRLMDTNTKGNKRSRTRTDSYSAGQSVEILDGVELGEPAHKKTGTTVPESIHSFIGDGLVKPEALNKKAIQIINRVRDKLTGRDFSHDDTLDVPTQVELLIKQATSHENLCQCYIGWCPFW

Each structure is given as a SMILES string. Like-named read-outs stand apart in the source and are kept apart here.

PI3K-alpha, sequence (P42336 whole entry, species assumed): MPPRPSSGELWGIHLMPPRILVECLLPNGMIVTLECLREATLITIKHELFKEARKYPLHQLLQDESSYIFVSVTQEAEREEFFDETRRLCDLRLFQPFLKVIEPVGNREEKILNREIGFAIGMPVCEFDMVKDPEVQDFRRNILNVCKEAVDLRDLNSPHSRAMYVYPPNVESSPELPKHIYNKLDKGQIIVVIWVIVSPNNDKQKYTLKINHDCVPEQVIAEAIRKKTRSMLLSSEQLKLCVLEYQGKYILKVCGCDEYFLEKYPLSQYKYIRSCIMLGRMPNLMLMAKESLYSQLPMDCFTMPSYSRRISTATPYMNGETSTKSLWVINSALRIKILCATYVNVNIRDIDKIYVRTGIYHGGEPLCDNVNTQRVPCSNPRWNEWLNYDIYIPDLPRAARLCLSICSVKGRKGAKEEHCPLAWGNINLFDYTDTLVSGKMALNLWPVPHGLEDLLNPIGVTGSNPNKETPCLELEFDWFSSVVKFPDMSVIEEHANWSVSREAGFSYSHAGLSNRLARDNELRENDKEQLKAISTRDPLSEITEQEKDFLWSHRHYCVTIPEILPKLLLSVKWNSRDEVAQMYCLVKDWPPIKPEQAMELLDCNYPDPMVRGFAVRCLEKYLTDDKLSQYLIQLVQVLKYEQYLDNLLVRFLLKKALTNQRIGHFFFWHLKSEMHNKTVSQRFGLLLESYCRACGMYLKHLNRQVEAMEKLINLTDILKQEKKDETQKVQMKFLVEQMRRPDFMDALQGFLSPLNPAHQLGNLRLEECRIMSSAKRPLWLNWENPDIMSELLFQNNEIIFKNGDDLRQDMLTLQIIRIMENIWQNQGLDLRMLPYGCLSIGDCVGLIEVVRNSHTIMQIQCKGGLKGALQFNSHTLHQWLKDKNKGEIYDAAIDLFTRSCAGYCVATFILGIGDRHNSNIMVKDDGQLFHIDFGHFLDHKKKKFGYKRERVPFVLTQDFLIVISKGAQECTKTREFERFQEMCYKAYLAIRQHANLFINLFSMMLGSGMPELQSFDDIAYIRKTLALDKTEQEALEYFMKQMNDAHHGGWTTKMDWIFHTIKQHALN
PI3K-alpha, sequence (P27986 whole entry partner, species assumed): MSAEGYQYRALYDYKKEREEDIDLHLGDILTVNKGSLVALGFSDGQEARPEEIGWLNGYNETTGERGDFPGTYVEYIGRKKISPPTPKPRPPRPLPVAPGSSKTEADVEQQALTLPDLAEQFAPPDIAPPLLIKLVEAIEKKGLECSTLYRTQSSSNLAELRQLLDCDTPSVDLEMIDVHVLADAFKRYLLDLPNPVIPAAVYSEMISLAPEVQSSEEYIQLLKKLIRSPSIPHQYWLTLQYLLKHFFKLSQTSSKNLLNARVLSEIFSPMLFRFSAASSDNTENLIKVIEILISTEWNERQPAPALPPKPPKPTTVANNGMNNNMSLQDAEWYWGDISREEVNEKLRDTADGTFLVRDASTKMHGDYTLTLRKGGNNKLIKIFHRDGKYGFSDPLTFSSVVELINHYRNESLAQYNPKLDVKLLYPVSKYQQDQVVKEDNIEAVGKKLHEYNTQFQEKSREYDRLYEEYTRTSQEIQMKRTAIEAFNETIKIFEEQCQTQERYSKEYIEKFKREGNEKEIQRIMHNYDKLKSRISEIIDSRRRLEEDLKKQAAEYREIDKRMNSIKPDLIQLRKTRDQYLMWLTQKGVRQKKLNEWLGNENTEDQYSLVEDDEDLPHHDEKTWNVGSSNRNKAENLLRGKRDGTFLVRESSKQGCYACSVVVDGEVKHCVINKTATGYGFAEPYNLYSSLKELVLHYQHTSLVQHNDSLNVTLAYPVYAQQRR

One may read the IC50 as the midpoint of a concentration-inhibition curve. Turning to `CCNC(=O)Nc1ccc(-c2cc(N3CC4CCC(C3)O4)nc(-c3ccc(NC(=O)NCC)cc3)n2)cc1` [N′,N′″-{[6-(8-oxa-3-azabicyclo[3.2.1]oct-3-yl)pyrimidine-2,4-diyl]di-4,1-phenylene}bis(1-ethylurea)], the 50% inhibitory concentration (IC50) on PI3K-alpha came out at 1660 nM; with LNCap (LNCaP, 72 h) it was 310 nM; with MDA468 (72 h), 790 nM; on mTOR, 1.85 nM.

Turning to `CNC(=O)Nc1ccc(-c2nc(N3CC4CCC(C3)O4)cc(N3CC4CCC(C3)O4)n2)cc1` [1-[4-(4,6-di-8-oxa-3-azabicyclo[3.2.1]oct-3-ylpyrimidin-2-yl)phenyl]-3-methylurea], the IC50 worked out at 1080 nM on PI3K-alpha; 250 nM in the test with LNCap (LNCaP, 72 h); 1000 nM with MDA468 (72 h); 7.05 nM against mTOR.

As to `CNCc1ccc(NC(=O)Nc2ccc(-c3nc(CS(C)(=O)=O)cc(N4CC5CCC(C4)O5)n3)cc2)cc1` [1-{4-[(methylamino)methyl]phenyl}-3-(4-{4-[(methylsulfonyl)methyl]-6-(8-oxa-3-azabicyclo[3.2.1]oct-3-yl)pyrimidin-2-yl}phenyl)urea], the IC50 on PI3K-alpha came to 63.5 nM; in the test with LNCap (LNCaP, 72 h) it was 1100 nM; with MDA468 (72 h), 1560 nM; against mTOR it was 4.15 nM.

For the molecule `CNC(=O)Nc1ccc(-c2nccc(N3CC4CCC(C3)O4)n2)cc1` [1-methyl-3-{4-[4-(8-oxa-3-azabicyclo[3.2.1]oct-3-yl)pyrimidin-2-yl]phenyl}urea], the IC50 on PI3K-alpha is 1840 nM; in the test on LNCap (LNCaP, 72 h), 2500 nM; in the test on MDA468 (72 h) it was 10500 nM; against mTOR, 132 nM.

As for `O=C(Nc1ccc(-c2nc(N3CC4CCC(C3)O4)cc(C(F)(F)F)n2)cc1)OCCO` [2-hydroxyethyl {4-[4-(8-oxa-3-azabicyclo[3.2.1]oct-3-yl)-6-(trifluoromethyl)pyrimidin-2-yl]phenyl}carbamate], the IC50 amounted to 5160 nM at PI3K-alpha; 950 nM in the test on LNCap (LNCaP, 72 h); 4000 nM in the test on MDA468 (72 h); 15.5 nM against mTOR.

As to `O=C(Nc1ccc(-c2cc(N3CC4CCC(C3)O4)nc(-c3ccc(NC(=O)NC4CC4)cc3)n2)cc1)NC1CC1` [N′,N′″-{[6-(8-oxa-3-azabicyclo[3.2.1]oct-3-yl)pyrimidine-2,4-diyl]di-4,1-phenylene}bis(1-cyclopropylurea)], the IC50 on PI3K-alpha was determined as 2920 nM; in the test on LNCap (LNCaP, 72 h), 310 nM; in the test on MDA468 (72 h), 1500 nM; on mTOR it was 4 nM.

Consider `CN1CCN(c2ccc(NC(=O)Nc3ccc(-c4cc(N5CC6CCC(C5)O6)nc(N5CC6CCC(C5)O6)n4)cc3)cc2)CC1` [1-[4-(2,6-di-8-oxa-3-azabicyclo[3.2.1]oct-3-ylpyrimidin-4-yl)phenyl]-3-[4-(4-methylpiperazin-1-yl)phenyl]urea], for which the IC50 on PI3K-alpha was 588 nM; in the test on LNCap (LNCaP, 72 h), 40 nM; in the test with MDA468 (72 h) it was 160 nM; at mTOR it was 9.55 nM.

With `CC(C)Oc1cc(N2CC3CCC(C2)O3)nc(-c2ccc(NC(=O)Nc3ccncc3)cc2)n1` [1-{4-[4-(1-methylethoxy)-6-(8-oxa-3-azabicyclo[3.2.1]oct-3-yl)pyrimidin-2-yl]phenyl}-3-pyridin-4-ylurea], the IC50 at PI3K-alpha is 264 nM; with LNCap (LNCaP, 72 h) it was 23 nM; with MDA468 (72 h), 180 nM; against mTOR it was 1.35 nM.

In the case of `CN(C)CCOc1ccc(NC(=O)Nc2ccc(-c3nc(N4C5CCC4COC5)cc(N4C5CCC4COC5)n3)cc2)cc1` [1-{4-[2-(dimethylamino)ethoxy]phenyl}-3-[4-(4,6-di-3-oxa-8-azabicyclo[3.2.1]oct-8-ylpyrimidin-2-yl)phenyl]urea], the IC50 worked out at 1540 nM on PI3K-alpha; 4 nM in the test on LNCap (LNCaP, 72 h); 9 nM in the test on MDA468 (72 h); 2.5 nM against mTOR.

As for `CN1CCN(c2ccc(NC(=O)Nc3ccc(-c4nc(CS(C)(=O)=O)cc(N5CC6CCC(C5)O6)n4)cc3)cc2)CC1` [1-[4-(4-methylpiperazin-1-yl)phenyl]-3-(4-{4-[(methylsulfonyl)methyl]-6-(8-oxa-3-azabicyclo[3.2.1]oct-3-yl)pyrimidin-2-yl}phenyl)urea], the IC50 on PI3K-alpha was determined as 343 nM; in the test with LNCap (LNCaP, 72 h), 15 nM; with MDA468 (72 h), 30 nM; on mTOR, 2.95 nM.

`CNC(=O)Nc1ccc(-c2cc(N3CC4CCC(C3)O4)nc(N3CC4CCC(C3)O4)n2)cc1` [1-[4-(2,6-di-8-oxa-3-azabicyclo[3.2.1]oct-3-ylpyrimidin-4-yl)phenyl]-3-methylurea]: the IC50 is 2490 nM at PI3K-alpha; 1600 nM in the test with LNCap (LNCaP, 72 h); 4200 nM in the test on MDA468 (72 h); 20.5 nM against mTOR.

For `CC(C)Nc1cc(N2CC3CCC(C2)O3)nc(-c2ccc(NC(=O)NC3CC3)cc2)n1` [1-cyclopropyl-3-(4-{4-[(1-methylethyl)amino]-6-(8-oxa-3-azabicyclo[3.2.1]oct-3-yl)pyrimidin-2-yl}phenyl)urea], the IC50 at PI3K-alpha was 3620 nM; in the test on LNCap (LNCaP, 72 h) it was 700 nM; in the test with MDA468 (72 h) it was 4200 nM; on mTOR, 8.2 nM.

With `CCNC(=O)Nc1ccc(-c2nc(-c3ccccc3)cc(N3CC4CCC(C3)O4)n2)cc1` [1-ethyl-3-{4-[4-(8-oxa-3-azabicyclo[3.2.1]oct-3-yl)-6-phenylpyrimidin-2-yl]phenyl}urea], the IC50 worked out at 2050 nM on PI3K-alpha; 450 nM in the test on LNCap (LNCaP, 72 h); 1900 nM with MDA468 (72 h); 11 nM on mTOR.

For `O=C(Nc1ccc(-c2nc(N3CC4CCC(C3)O4)cc(C(F)(F)F)n2)cc1)NC1CC1` [1-cyclopropyl-3-{4-[4-(8-oxa-3-azabicyclo[3.2.1]oct-3-yl)-6-(trifluoromethyl)pyrimidin-2-yl]phenyl}urea], the IC50 at PI3K-alpha amounted to 8160 nM; in the test with LNCap (LNCaP, 72 h), 450 nM; with MDA468 (72 h) it was 3000 nM; on mTOR it was 10.4 nM.

For the molecule `CC(C)Nc1cc(N2C3CCC2COC3)nc(-c2ccc(NC(=O)Nc3ccncc3)cc2)n1` [1-{4-[4-(isopropylamino)-6-(3-oxa-8-azabicyclo[3.2.1]oct-8-yl)pyrimidin-2-yl]phenyl}-3-pyridin-4-ylurea], the IC50 at PI3K-alpha stood at 2500 nM; with LNCap (LNCaP, 72 h), 13 nM; with MDA468 (72 h) it was 29 nM; on mTOR, 1.4 nM.

Turning to `NC(=O)c1ccc(NC(=O)Nc2ccc(-c3cc(N4CC5CCC(C4)O5)nc(-c4ccc(NC(=O)Nc5ccc(C(N)=O)cc5)cc4)n3)cc2)cc1` [4,4′-{[6-(8-oxa-3-azabicyclo[3.2.1]oct-3-yl)pyrimidine-2,4-diyl]bis(4,1-phenylenecarbamoylimino)}dibenzamide], the IC50 at PI3K-alpha was 44.5 nM; in the test with LNCap it was 41 nM; with MDA468 it was 45 nM; against mTOR it was 0.58 nM.

Consider `O=C(Nc1ccncc1)Nc1ccc(-c2nc(N3CC4CCC(C3)O4)cc(N3CC4CCC(C3)O4)n2)cc1` [1-[4-(4,6-di-8-oxa-3-azabicyclo[3.2.1]oct-3-ylpyrimidin-2-yl)phenyl]-3-pyridin-4-ylurea], for which the IC50 on PI3K-alpha stood at 125 nM; with LNCap (LNCaP, 72 h), 28 nM; in the test on MDA468 (72 h), 50 nM; at mTOR, 0.56 nM.

With `CN1CCN(c2ccc(NC(=O)Nc3ccc(-c4cc(N5CC6CCC(C5)O6)nc(-c5ccc(NC(=O)Nc6ccc(N7CCN(C)CC7)cc6)cc5)n4)cc3)cc2)CC1` [N′,N′″-{[6-(8-oxa-3-azabicyclo[3.2.1]oct-3-yl)pyrimidine-2,4-diyl]di-4,1-phenylene}bis{1-[4-(4-methylpiperazin-1-yl)phenyl]urea}], the IC50 on PI3K-alpha was found to be 1020 nM; in the test on LNCap (LNCaP, 72 h), 300 nM; in the test on MDA468 (72 h) it was 760 nM; against mTOR it was 2.15 nM.
